Data from patent US7470684B2, “Spiropiperidine derivatives as NK3 antagonists” (Hoffmann-La Roche Inc., priority 2007, dated 2008).
Where a name gives a salt, the structure may show the parent alone. Read-outs that look alike come from different tables or passages of the source.

Target: T1, human NK3 receptor (Homo sapiens, UniProt P29371)
T1 construct: expressed in transfected cells; host or cells: HEK293 cells, transiently transfected; membranes
T1 sequence (P29371 1-465): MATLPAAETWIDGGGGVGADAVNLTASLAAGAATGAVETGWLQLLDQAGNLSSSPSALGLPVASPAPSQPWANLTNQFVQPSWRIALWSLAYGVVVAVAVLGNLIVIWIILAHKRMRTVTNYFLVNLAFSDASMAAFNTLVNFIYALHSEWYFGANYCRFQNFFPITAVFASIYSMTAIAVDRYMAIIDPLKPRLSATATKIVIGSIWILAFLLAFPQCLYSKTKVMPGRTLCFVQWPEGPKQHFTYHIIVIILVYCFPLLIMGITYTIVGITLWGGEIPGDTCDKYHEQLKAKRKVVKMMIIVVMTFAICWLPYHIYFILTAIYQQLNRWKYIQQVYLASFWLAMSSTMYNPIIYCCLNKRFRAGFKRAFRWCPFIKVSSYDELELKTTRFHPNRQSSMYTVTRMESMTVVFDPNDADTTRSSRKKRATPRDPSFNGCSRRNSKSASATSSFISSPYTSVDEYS
Test: [3H]SR142801 competition binding assay
In short: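 Membranes from HEK293 cells transiently expressing human NK3 receptor incubated 75 min at RT with [3H]SR142801 at its KD and compound (0.0003-10 μM) in pH 7.4 Tris/MnCl2 buffer. Filtration and scintillation counting, nonspecific binding with 10 μM SB222200. IC50 from Hill fit, Ki by Cheng-Prusoff, duplicates.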

[1] = [3H]SR142801 displacement, membranes of HEK293 cells transiently expressing recombinant human NK3 receptor, read-out: hNK3 Ki
[2] = hNK3 Ki, [3H]SR142801 displacement, membranes of HEK293 cells transiently expressing recombinant human NK3 receptor

SMILES | Ki [1] [nM] | Ki [2] [nM] | other results
O=C1Nc2ccc(F)cc2C2(CCN(CCCC(C(=O)NCc3ccc(C(F)(F)F)cc3)c3ccc(Cl)c(Cl)c3)CC2)O1 (centres unmarked) [Example 135, 2-(3,4-dichlorophenyl)-5-(6-fluoro-2-oxo-1,2-dihydro-1′H-spiro[3,1-benzoxazine-4,4′-piperidin]-1′-yl)-N-[4-(trifluoromethyl)benzyl]pentanamide] | 90.3 |  | 
Cc1ccc(CN(C)C(=O)C(CCCN2CCC3(CC2)OC(=O)Nc2ccc(F)cc23)c2ccc(Cl)c(Cl)c2)cc1 (centres unmarked) [Example 138, 2-(3,4-dichlorophenyl)-5-(6-fluoro-2-oxo-1,2-dihydro-1′H-spiro[3,1-benzoxazine-4,4′-piperidin]-1′-yl)-N-methyl-N-(4-methylbenzyl)pentanamide] |  | 95.4 | 
C[C@H](NC(=O)[C@H](CCN1CCC2(CC1)OC(=O)Nc1ccc(F)cc12)c1ccc(Cl)c(Cl)c1)c1ccccc1 [Example 146, (2R)-2-(3,4-dichlorophenyl)-4-(6-fluoro-2-oxo-1,2-dihydro-1′H-spiro[3,1-benzoxazine-4,4′-piperidin]-1′-yl)-N-[(1S)-1-phenylethyl]butanamidehydrochloride] |  | 5.7 | 
CN(Cc1ccc(Cl)cc1)C(=O)[C@H](CCN1CCC2(CC1)OC(=O)N(C)c1ccc(F)cc12)c1ccc(Cl)c(Cl)c1 [Example 147, (2R)-N-(4-chlorobenzyl)-2-(3,4-dichlorophenyl)-4-(6-fluoro-1-methyl-2-oxo-1,2-dihydro-1′H-spiro[3,1-benzoxazine-4,4′-piperidin]-1′-yl)-N-methylbutanamide] |  |  | Ki: 1.8 nM
CN(Cc1ccc(Cl)cc1)C(=O)[C@@H](CCN1CCC2(CC1)OC(=O)N(C)c1ccc(F)cc12)c1ccc(Cl)c(Cl)c1 [Example 148, (2S)-N-(4-chlorobenzyl)-2-(3,4-dichlorophenyl)-4-(6-fluoro-1-methyl-2-oxo-1,2-dihydro-1′H-spiro[3,1-benzoxazine-4,4′-piperidin]-1′-yl)-N-methylbutanamide] | 0.4 |  | 
